Entries after “also recorded” stand apart in the source; their conditions may differ. Like-named read-outs stand apart in the source and are kept apart here. Marks after values point to notes of the source that are not given here.

The test system of experiment [1] is Phyllosticta citricarpa. Description: Inhibition of Phyllosticta citricarpa pycnidia development in citrus leaves. As to conditions: 21 days; for Decrease of the number of pycnidia produced by P. citricarpa in citrus leaves: 10 mg/mL. It is filed as cell-based.
For experiment [2], the system named is Phyllosticta citricarpa. Description: Inhibition of citrus black spot development in detached citrus fruits. Format: in vivo. Conditions: 21 days; for Inhibition of CBS symptoms in citrus fruits: 10 mg/mL.
For experiment [3], the system named is Phyllosticta citricarpa. In words: Mycelial growth inhibition assay in petri dishes. It is filed as cell-based. Conditions: 21 days; for Inhibition of mycelial growth of P. citricarpa: petri dishes, 10 mg/mL.
Experiment [4] relates to PC3 (prostate cancer) cell line. In words: Cytotoxicity assay. As to conditions: read-out: IC50 PC3.
Experiment [5] has as its system A549 (non-small cell lung cancer) cell line. Description: Cytotoxicity assay. Conditions: read-out: IC50 A549.
A further experiment concerns HCT-116. As to conditions: cited from earlier work.
The mark [6] stands for this setting: detached C. sinensis fruits, 10 μL of 10 mg/mL solution in methanol.

On to `Cc1cc(O)c2c(=O)c3c(C(=O)O)cccc3oc2c1` [8a, 8-hydroxy-6-methyl-9-oxo-9H-xanthene-1-carboxylic acid], for which the “Decrease of the number of pycnidia produced by P. citricarpa in citrus leaves” value (“Decrease … by P. citricarpa in citrus leaves” for short) with Phyllosticta citricarpa [1] is “less than 14%”.
As for `Cc1cc(C(=O)O)c2c(=O)c3c(O)cccc3oc2c1` [8b, 8-hydroxy-3-methyl-9-oxo-9H-xanthene-1-carboxylic acid], the “Decrease … by P. citricarpa in citrus leaves” value in the experiment with Phyllosticta citricarpa [1] was “less than 14%”.
Take `COC(=O)Nc1nc2ccccc2[nH]1` [Carbendazim, carbendazim, reference compound]: the “Number of pycnidia produced in leaves by P. citricarpa” value in the experiment with Phyllosticta citricarpa [1] (positive control) turned out to be 0. Besides, the “Development of citrus black spot (CBS) symptoms” value (shortened to “Development of citrus black spot”) in the experiment with Phyllosticta citricarpa [2] (positive control, 50 μg carbendazim, detached fruits) was “−”. The “Growth [in cm mean (± SD)] of Phyllosticta citricarpa in petri dishes” value with Phyllosticta citricarpa [3] (positive control, carbendazim 1.0 mg/mL) is 0 ^* cm.
For orientation: IC50 means the concentration at which inhibition is half-maximal. For `CC(=O)OC[C@]12Oc3c(-c4ccc(O)c5c4O[C@@]4(COC(C)=O)C(=C(O)C[C@@H](C)[C@H]4OC(C)=O)C5=O)ccc(O)c3C(=O)C1=C(O)C[C@@H](C)[C@H]2OC(C)=O` [compound 3, phomoxanthone A], the “Decrease … by P. citricarpa in citrus leaves” value in the experiment with Phyllosticta citricarpa [1] is listed as 70.2%. In addition, the IC50 in experiment [4] (Homo sapiens, 72 h) was 3.18 ± 0.02 µM; in experiment [5] (Homo sapiens, A549, 72 h), 4.95 ± 0.53 µM. The “Development of citrus black spot” value with Phyllosticta citricarpa [2] (setting [6]) is given as “−”. Further, the “Inhibition of CBS symptoms in citrus fruits” value in the experiment with Phyllosticta citricarpa [2] (detached fruits) is “inhibited the development of citrus black spot symptoms; also recorded: completely inhibited CBS symptoms; also recorded: suppressed the hyphal growth and development of CBS lesions”.
`CC(=O)OC[C@]12Oc3ccc(-c4ccc(O)c5c4O[C@@]4(COC(C)=O)C(=C(O)C[C@@H](C)[C@H]4OC(C)=O)C5=O)c(O)c3C(=O)C1=C(O)C[C@@H](C)[C@H]2OC(C)=O` [compound 4, phomoxanthone B]: the “Decrease … by P. citricarpa in citrus leaves” value with Phyllosticta citricarpa [1] worked out at 63.1%. Also, the IC50 in experiment [4] (Homo sapiens, 72 h) is 7.39 ± 0.62 µM; in experiment [5] (Homo sapiens, A549, 72 h) it was 10.4 ± 0.59 µM. Also, the “Development of citrus black spot” value in the experiment with Phyllosticta citricarpa [2] (setting [6]) was “+”.
In the case of `CC(=O)OC[C@]12Oc3ccc(-c4ccc5c(c4O)C(=O)C4=C(O)C[C@@H](C)[C@@H](OC(C)=O)[C@@]4(COC(C)=O)O5)c(O)c3C(=O)C1=C(O)C[C@@H](C)[C@H]2OC(C)=O` [compound 5, dicerandrol C], the “Decrease … by P. citricarpa in citrus leaves” value in the experiment with Phyllosticta citricarpa [1] is listed as “less than 14%”. Further, the IC50 stood at 2.23 ± 0.13 µM in experiment [4] (Homo sapiens, 72 h) and 2.92 ± 0.24 µM in experiment [5] (Homo sapiens, A549, 72 h). Also, the “Development of citrus black spot” value in the experiment on Phyllosticta citricarpa [2] (setting [6]) is “+”.
For `C=C1[C@@H](C)[C@H]2[C@H](Cc3ccccc3)NC(=O)[C@]23[C@H](OC(C)=O)/C=C/[C@](C)(O)C[C@@H](C)C/C=C/[C@H]3[C@@H]1O` [compound 6, cytochalasin H], the “Decrease … by P. citricarpa in citrus leaves” value with Phyllosticta citricarpa [1] came to 78.3%. Also, the IC50 in experiment [4] (72 h incubation) and in experiment [5] (72 h incubation) was more than 50 µM in each case. In addition, the “Development of citrus black spot” value in the experiment on Phyllosticta citricarpa [2] (setting [6]) is listed as “−”. For the same compound, the “Inhibition of CBS symptoms in citrus fruits” value with Phyllosticta citricarpa [2] (detached fruits) is “inhibited the development of citrus black spot symptoms; also recorded: completely inhibited CBS symptoms; also recorded: suppressed the hyphal growth and development of CBS lesions”. In addition, the “Inhibition of mycelial growth of P. citricarpa” value in the experiment with Phyllosticta citricarpa [3] was 80%.
Turning to `C=C1[C@@H](C)[C@H]2[C@H](Cc3ccccc3)NC(=O)[C@]23[C@H](O)/C=C/[C@](C)(O)C[C@@H](C)C/C=C/[C@H]3[C@@H]1O` [compound 7, cytochalasin J], in the experiment on Phyllosticta citricarpa [1], the “Decrease … by P. citricarpa in citrus leaves” value is recorded as “less than 14%”. Also, the IC50 in experiment [4] (72 h incubation) and in experiment [5] (72 h incubation) was more than 80 µM throughout. The “Development of citrus black spot” value with Phyllosticta citricarpa [2] (setting [6]) is listed as “+”.
`CCCCCCCc1cc(=O)c2c(CC(=O)OC)cc(O)cc2o1` [compound 9, 5-carbomethoxymethyl-2-heptyl-7-hydroxychromone]: the “Decrease … by P. citricarpa in citrus leaves” value in the experiment with Phyllosticta citricarpa [1] is listed as “no activity”. In addition, the IC50 is more than 80 µM in experiment [4] (Homo sapiens, 72 h) and more than 80 µM in experiment [5] (Homo sapiens, A549, 72 h). Also, the “Development of citrus black spot” value with Phyllosticta citricarpa [2] (setting [6]) is on record as “+”.
As to `Cc1occc(=O)c1O` [compound 10, maltol], in the experiment with Phyllosticta citricarpa [1], the “Decrease … by P. citricarpa in citrus leaves” value is reported as “less than 14%”. The IC50 in experiment [4] (Homo sapiens, 72 h) is more than 80 µM; in experiment [5] (Homo sapiens, A549, 72 h), more than 80 µM. Moreover, the “Development of citrus black spot” value in the experiment on Phyllosticta citricarpa [2] (setting [6]) is recorded as “+”.
In the case of `COc1cc2c(cc1OC)[C@]1(O)C(=O)c3ccc4c(c3O[C@@H]1CO2)C=CC(C)(C)O4` [tephrosin], in the experiment with HCT-116, the “Activity against colorectal cancer cell line HCT-116” value is recorded as “showed activity”.
Consider paecilin Q [compound 1], for which, in the experiment with Phyllosticta citricarpa [1], the “Decrease … by P. citricarpa in citrus leaves” value stood at 50.5%. The IC50 in experiment [4] (72 h incubation) and in experiment [5] (72 h incubation) was more than 80 µM in each case. Besides, the “Development of citrus black spot” value with Phyllosticta citricarpa [2] (setting [6]) is recorded as “+”. Besides, the “Inhibition of mycelial growth of P. citricarpa” value in the experiment on Phyllosticta citricarpa [3] is listed as 48.6%.
paecilin R [compound 2]: the “Decrease … by P. citricarpa in citrus leaves” value in the experiment with Phyllosticta citricarpa [1] came to 35.5%. The concentration for half-maximal inhibition (IC50) in experiment [4] (72 h incubation) and in experiment [5] (72 h incubation) was more than 80 µM throughout. For the same compound, the “Development of citrus black spot” value in the experiment on Phyllosticta citricarpa [2] (setting [6]) is recorded as “+”.

Values taken from article PMC10698238 (Planta medica, 2023).
